From patent US8992891B2, “Therapeutic approaches for treating CMT and related disorders” (Pharnext, priority 2007, dated 2015)

What was measured:
[1] = tested on: hemizygous PMP22 transgenic rat (CMT rat); assay: Electrophysiological evaluation in CMT transgenic rats; format: in vivo; conditions: versus TG placebo group; for potential amplitude measured on the distal portion of the tail: CMT rats treated during 20 weeks
Source text: When appropriate, the rats are subjected to electrophysiological evaluation and histological measurement.

PMP22 protein = PMP22 protein expression analysis by flow cytometry (FACS) in Schwann cells; format: cell-based, rat; design: key to Protein (PMP22 expression decrease): +: significantly decreases PMP22 levels compared to control; conditions: for Protein (PMP22 expression decrease): rat primary Schwann cells, FACS, 24 hrs
Experimental: One day later, Schwann cells are stimulated by combinations of drugs or drugs alone during 24 hrs (3 wells/condition). The preparation of each compound is performed just prior to its addition to the cell culture medium. Drugs are added to a defined medium composed of DMEM-F12, with 1% Insulin-Transferrin-Selenium-X (ITS, Invitrogen #51300), 16 μg/ml of Putrescine, 0.02 μg/ml of corticosterone, 10 nM Progesterone and 50 μg/ml of gentamicin. The absence of Forskolin during drug stimulation avoids adenylate cyclase saturation. 8 hrs, 24 hrs and 48 hrs after drugs incubation, supernatants are recovered, centrifuged and frozen. SC are detached with trypsin-EDTA. As soon as the majority of cells are in suspension, the trypsin is neutralised using DMEM with 10% FCS. Supernatants with cells are recovered and centrifuged. The pellets of cells are transferred in micro tubes, washed in PBS once and fixed with a specific solution (AbCys #Reagent A BUF09B). 10 minutes later, cells are rinsed once with PBS and kept at 4° C. Five days after cell fixation, all cell preparations with different incubation times are labelled using the following protocol. […] Cells are then centrifuged at 7000 rpm for 5 minutes and cell pellets are rinsed once in PBS. A secondary antibody is added, coupled to Alexa Fluor 488 (goat anti-rabbit IgG, Molecular Probes #A11008, 1/100), for one hour at room temperature. Cells are then centrifuged at 7000 rpm for 5 minutes and cell pellets are rinsed once in PBS. The labelling is increased adding a tertiary antibody coupled to Alexa Fluor 488 (chicken anti-goat IgG, Molecular Probes #A21467, 1/100) for one hour incubation, at room temperature. Cells are then rinsed once in PBS. Control without any antibody (unlabelled cells) is performed to determine the level of autofluorescence and adapted the sensitivity of the photomultiplicators. Control with both secondary and tertiary antibodies but without primary antibody, is performed to assess non specific binding of antibodies. Data acquisition and analysis are performed with a FACS Array cytometer and FACS Array software (Becton Dickinson) on 5000 cells. Forward Scatter (FSC) correlated with cell volume (size) and Side Scatter (SSC) depending on inner complexity of cells (granularity) are analysed. For expression of PMP22, analysis is performed within the total cells and percent of positive cells is calculated. Positive cells are cells with fluorescence intensity higher than the control with secondary antibody. We tested the ability of some drugs to inhibit PMP22 protein expression (FACS analysis). […] The results of the action of some individual drugs on the protein level of PMP22 are also shown on table 1 above.

[2] = tested on: hemizygous PMP22 transgenic rat (CMT rat); assay: Bar test in CMT transgenic rat model; format: in vivo; conditions: CMT rats; for bar test performance compared with the placebo group: 16 weeks of treatment; for improvement of bar test motor performances versus placebo: after 8 weeks of the force-feeding; for bar test performances throughout the treatment procedure: chronic treatment
Source text: Four weeks-old rats transgenic PMP22 rats have been used throughout of the study. Aspects of the study design (randomization, statistics for multiple comparisons, sample size etc.) have been checked to be in line with the recommendations provided in 4th issue of 43rd volume of ILAR Journal (2002), that provides reviews in the field of experimental design and statistics in biomedical research.
The experimental groups are formed with young rats of both genders separately. The rats are assigned to the groups following randomization schedule based on the body weight. In some experiments the randomization is based on the performances of the rats in the bar test.
Both genders are represented by separate control groups that are numerically equal or bigger than the treatment groups.
The animals are weighted twice a week in order to adjust the doses to growing body weight. If the osmotic pump is chosen for the treatment administration, the doses of the drug are calculated on the basis of the estimated mean body weight of the animals expected for their age over the period of the pump duration (6 weeks). The pumps are re-implanted if necessary, with the appropriated aesthesia protocol.
Each three or four weeks the animals are subjected to a behavioural test. Each test is conducted be the same investigator in the same room and at the same time of the day; this homogeneity is maintained throughout entire experiment. All treatments are blinded for the investigator. “Bar test” and “Grip strength” has been mainly used to access the performance throughout study. The schedule of the bar test may change as the animal growth (in order to avoid the bias due to the learning, for example).
The Bar Test evaluates rats' ability to hold on a fix rod. […] The rat is placed on its four paws on the middle of the rod (diameter: 2.5 cm; length: 50 cm; 30 cm above the table). Trials are performed consecutively; the number and the duration of trials in our experiments have been depending on batches of the animals. This variability in the testing have been introduced in order to determine the schedule appropriated to the best detection of the motor deficiency in the CMT rats in the course of the experiments.
Performance indices are recorded on each session: • The number of trials needed to hold for 60 sec (or 30 sec for batch 1, session 1 and 2) on the rod. • The time spent on the bar (i.e. the fall latency) in each trial and the average on the session. In the experimental procedures where the session ends after the rat has stayed for a cut-off time, i.e. 30 or 60 s, on the bar, a performance of the cut-off time (30 s or 60 s) is assigned to trials not completed (eg: for batch 8, for an animal which stays on the bar less than 10 sec on trials 1, 2 and 3, then for 60 sec on trials 4 and 5, 60 s is assigned to trials 6 to 10). • The number of falls.

Compound	potential amplitude measured on the distal portion of the tail [1]	PMP22 protein expression, in words (PMP22 protein; Schwann cells in vitro, 24 hrs of incubation, compared to untreated controls)	Protein (PMP22 expression decrease) (PMP22 protein)	first dose shown to be active, as fraction of the dose equivalent to dosage used in human for the canonical indications [2]	bar test performance compared with the placebo group [2]	improvement of bar test motor performances versus placebo [2]	bar test performances throughout the treatment procedure [2]	nerve conduction velocity (NCV) ([1]; CMT rats)
CC[C@@H]1C(=O)OC[C@@H]1Cc1cncn1C [Pilocarpine]	failed to reach statistical significance	decreases expression of the PMP22 protein	+	one half	significantly more performing	statistically significant	improved bar test performances	–
Cn1cc[nH]c1=S [Methimazole]	significantly improved	–	+	one fourth	significantly more performing	statistically significant	improved bar test performances	not significantly affected
